“Also recorded” adds a separate entry of the source.
What was measured:
Serum stability in FBS = format: in vitro ADME; conditions: FBS at 37 °C, 72 hours, radio-TLC
Procedure: In vitro serum stability of was performed by adding the [^131I]mI-TMP (50 μL, 1.85 MBq) to fetal bovine serum (500 μL). The mixture was then incubated in a ThermoMixer (800 rpm) at 37 °C, and deiodination was analyzed by radio-TLC (10% NH40Ac:MeOH=3:7) at 0, 24, and 72 h. In this condition, free I-131 moved to solvent front whereas intact [^131I]I-TMP remained at the origin.

eDHFR [1] = molecular target: T1, eDHFR (Escherichia coli, UniProt P0ABQ4); conditions: eDHFR+ cells pre-incubated with 10 μM unlabeled TMP
T1 sequence (P0ABQ4 1-159): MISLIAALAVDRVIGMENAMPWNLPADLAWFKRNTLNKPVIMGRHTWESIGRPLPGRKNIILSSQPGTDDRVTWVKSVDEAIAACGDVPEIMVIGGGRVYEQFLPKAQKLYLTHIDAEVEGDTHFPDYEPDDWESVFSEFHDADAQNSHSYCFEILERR

eDHFR [2] = molecular target: T1, eDHFR; format: cell-based; conditions: I45 mesothelioma cells, eDHFR-FLAG vs WT; 60 min at 37 °C
From the text: See, FIG. 1E. […] See, FIG. 1F.

[3] = Ex vivo biodistribution in healthy Balb/c mice; design: species or system mouse
Procedure: Given promising in vitro experimental results, a biodistribution study was conducted on healthy balb/c mice. […] Mice were then euthanized 1-hour, 4-hour, and 24-hour post radiotracer injection, and organs were harvested for bio-distribution quantification. […] Total radioactive uptake per organ, in CPM, was determined by γ-counter (Wizard Detector, Perkin Elmer). […] See, FIG. 10A-10B and FIG. 11. These tissues could be sites where eDHFR could be localized using genetic vectors to achieve a high therapeutic index.
Another ex-vivo biodistribution study was performed with potassium iodide (SSKI) administration 8-12-week-old female balb/c mice (n=9) were administered with intraperitoneal administration for thyroid protection, with a dose of 100 mg/kg potassium iodide in a volume of 100 μL/10 g given the day before treatment, 30 minutes before the radioactive [^131I]mI-TMP injection.

I45 eDHFR-FLAG tumors = assay: Biodistribution in I45 tumor-bearing CD1 nude mice; format: in vivo, human; conditions: 24 hours
Procedure: RLT in I45 tumors. […] Briefly, I45 eDHFR-FLAG and WT cells were xenografted into the shoulders of female athymic CD1-Foxn1nu mice. The tumors were allowed to grow for ~2 weeks. Subsequently, [^131I]I-TMP was administered intravenously and a limited biodistribution study was performed. […] To assess for cytotoxicity in I45 mesothelioma cells, I45 WT and I45 eDHFR tumors were separately xenografted into CD1-Foxn1nu mice and either [^131I]I-TMP or saline was administered to form 4 experimental cohorts (n=7).
(v) In vivo I45 eDHFR-FLAG Tumor Model. Female CD1 nu/nu mice, aged six to eight weeks, were subject to subcutaneous xenografting. Specifically, I45 eDHFR-Flag cells (1×10^6 cells/mouse) were suspended in a solution comprising equal volumes of 75 μL RPMI complete medium and 75 μL Matrigel Matrix (Corning, 354234) for implantation on the shoulder.

eDHFR [4] = molecular target: T1, eDHFR; assay: Uptake and washout in HCT116-eDHFR-Luc vs WT cells; format: cell-based; design: in CAR T cells fused to C-terminus of CD3zeta of FAP-CAR
Procedure: The cells were sampled at 1 h, 2 h and 4 h. […] Similarly, the process cells was repeated for 2 h and 4 h samples.
Next, the therapeutic effect of [^131/125I]mI-TMP in a human colorectal carcinoma cell line, HCT116 was analyzed. […] The specificity of radiotracer uptake was determined by blocking conditions. […] See, FIG. 10A.
A washout study was performed to know the retention of the tracer in the cells. HCT116_eDHFR cells were incubated with 0.037 MBq of compound 5b for 20 minutes. The cells were washed, resuspended and sampled at 60, 120 and 240 minutes. […] To examine the radiotherapeutic effect, the incubation period was increased and the dose […]. The cells were dosed with 3.7 MBq at 37 °C and incubated them with 2 and 4 hours. See, FIG. 10B.

SMILES	serum stability, deiodination (Serum stability in FBS)	uptake under blocked conditions (eDHFR [1])	uptake in eDHFR+ cells compared to wild type (eDHFR [2])	stomach and liver uptake with KI pre-treatment ([3]; 0.67 MBq, 1 h)	uptake in blood, heart, lungs, brain, pancreas, bones and spleen with KI pre-treatment ([3]; 0.67 MBq, 1 h)	organ radioactivity, 24 h ([3]; 0.74 MBq i.v. tail vein, 24 h, no KI)	organ radioactivity, 1 h ([3]; 0.74 MBq i.v. tail vein, Balb/c, after 1 h time point)	uptake in heart, lungs, brain, pancreas, bones and spleen ([3]; 0.74 MBq i.v., all time points (1, 4, 24 h))	organ radioactivity with KI pre-treatment ([3]; kidney, small intestine, large intestine, 0.67 MBq, 1 h)	thyroid uptake with KI pre-treatment ([3]; potassium iodide (SSKI) 100 mg/kg, 0.67 MBq, 1 h)	presence in eDHFR+ tumors (I45 eDHFR-FLAG tumors; 18.5 MBq i.v.)	uptake in eDHFR tumors compared to WT tumors (I45 eDHFR-FLAG tumors)	washout from eDHFR tumors (I45 eDHFR-FLAG tumors)	uptake of radiotracer in eDHFR+ cells in comparison to wild-type (eDHFR [4])
COc1cc(Cc2cnc(N)nc2N)cc(I)c1OC [[^131I]mI-TMP, 5-(3-iodo-4,5-dimethoxybenzyl)pyrimidine-2,4-diamine]	without any detectable deiodination	reduced uptake												
COc1cc(Cc2cnc(N)nc2N)cc([131I])c1OC [[^131I]mI-TMP, 5-(3-iodo-4,5-dimethoxybenzyl)pyrimidine-2,4-diamine]			~ 80 fold	low uptake	Minimal to no uptake; also recorded: negligible uptake	increase in radioactivity in thyroid, indicating the deiodination	significant increase in the radioactivity in the kidney, small intestine, stomach, and liver	Minimal to no uptake	significant increase in the radioactivity in the kidney, small intestine and large intestine	abrogated thyroid uptake	present in eDHFR+ tumors, even after 24 hours	over 1000 fold	without substantial washout	two-fold increase in uptake

Reference: patent US20260364213A1, “RADIOLABELED COMPOUNDS OF TRIMETHOPRIM AND USES THEREOF” (THE TRUSTEES OF THE UNIVERSITY OF PENNSYLVANIA, priority 2023, published 2026)
